Each structure is given as a SMILES string. ≈ marks a conversion by molar mass, not a printed value. Read-outs that look alike come from different tables or passages of the source.

Data set [1] relates to pS6K-T389 in PC-3 cells (TORC1). The data set is described as follows: Cellular pS6K-T389 assay in PC-3 cells (TORC1 activity). It is filed as cell-based. To be noted: Homo sapiens, read-out: pS6K-T389 cell IC50. An excerpt:
Our previously reported inhibitor 1 (Figure 1) was potent against mTOR and selective against the off-target PI3Kα.[10]−[12] The target product profile for 1 and the next-generation analogs described here was for a dual inhibitor against both TORC1 and TORC2. […] We undertook a campaign to identify analogs that had improved prospects for a lower efficacious dose while retaining the favorable selectivity and safety profile of compound 1.

For data set [2], the system named is PI3Kα. The data set is described as follows: PI3Kα enzyme selectivity (PI3Kα IC50 over mTOR IC50). To be noted: ratio of PI3Kα enzyme IC50 over mTOR enzyme IC50. It is filed as biochemical.
Data set [3] in a line: Human liver microsome intrinsic clearance. In kind it is in vitro ADME.
The target in data set [4] is T1, CYP2C8 (Homo sapiens, UniProt P10632).
T1 sequence (P10632 1-490): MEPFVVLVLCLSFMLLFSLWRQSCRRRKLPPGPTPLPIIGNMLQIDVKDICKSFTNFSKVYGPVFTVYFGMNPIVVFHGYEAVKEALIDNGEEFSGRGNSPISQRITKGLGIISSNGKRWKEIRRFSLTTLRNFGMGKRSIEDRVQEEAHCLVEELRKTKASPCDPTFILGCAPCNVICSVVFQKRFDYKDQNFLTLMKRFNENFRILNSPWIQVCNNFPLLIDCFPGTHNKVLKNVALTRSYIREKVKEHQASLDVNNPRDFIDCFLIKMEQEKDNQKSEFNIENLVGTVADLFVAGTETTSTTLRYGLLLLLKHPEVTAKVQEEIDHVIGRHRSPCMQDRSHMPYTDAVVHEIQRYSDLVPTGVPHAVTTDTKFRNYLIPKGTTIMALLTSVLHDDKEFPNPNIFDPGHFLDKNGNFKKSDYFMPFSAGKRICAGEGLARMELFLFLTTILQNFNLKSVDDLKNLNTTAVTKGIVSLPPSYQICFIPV
The data set is described as follows: CYP inhibition, 2C8. It is filed as in vitro ADME. To be noted: most potently inhibited CYP isoform.

The nature of data set [5]: Rat PK (iv and po). In kind it is in vivo. To be noted: for frac. abs.: estimated from %F, Cl and Qh = 70 mL min^–1 kg^–1; for bioavailability: in vivo, 4 mg/kg; for bioavailability / Cl / Vd: iv 1 mpk; for bioavailability / Cmax: po 4 mpk in 0.5% methylcellulose. The source says: This was an early indication that the strategy of increasing potency while lowering lipophilicity would allow us to meet our goal of improving prospects for favorable PK and dose.

Data set [6] is described as follows: Thermodynamic solubility. It is filed as physicochemical.
For data set [7], the system named is A549 lung carcinoma cell line xenograft. The data set is described as follows: Mouse xenograft model with A549 lung carcinoma cell line. In kind it is in vivo. As for the experimental part:
Based on the improved rat PK for 14c, it was dosed at 2 and 6 mpk along with lead 1 at 30 mpk—in an effort to achieve similar in vivo exposure profiles—in a mouse xenograft model with the lung carcinoma cell line A549 (Figure 4). […] The 6 mpk dose of 14c reduced the tumor volume by more than 50%. Regrowth was included to assess a possible growth lag period, but as expected, tumor regrowth resumed following mTOR inhibitor withdrawal.[22]
All animal studies were conducted in accordance with Takeda California Institutional Animal Care and Use Committee guidelines in a facility accredited by the American Association for Accreditation of Laboratory Animal Care. Female Nu/Nu mice (Balb/c), approximately 28 days of age and weighing 20 to 23 grams were obtained from Harlan Laboratories. Immuno-compromised and/or inbred mice are used extensively for in vivo cancer research for detecting pharmacological capabilities induced by anti-cancer agents and therefore were chosen as the most appropriate animal model for this study. Five million A549 cells/animal (0.2 mL) w/ Matrigel were implanted S.C. into the right flank of Balb/c Nu/Nu mice.
Low passage A549 cells were grown in F12 media and supplied at a concentration of 50 million cells/mL in DPBS. Treatment was initiated when all study animals had small tumors averaging approximately 150-180 mg. Dosing solutions/suspensions were prepared every 5 days. Compound 1 was suspended in 30% Captisol in 0.05 M MSA pH ~1.5. Compound 14c was suspended in 0.5% MC. Dose solutions/suspensions were given orally at a dose volume of 5 mL/kg. […] The general health of the mice was monitored, and mortality was assessed daily. Tumor dimensions were recorded 2 times per week starting one day before the first day of treatment. Toxicity was assessed as net body weight loss and lethality. Tumor weights are calculated using the equation (a x b2)/2, where a and b refer to the larger and smaller dimensions collected at each measurement. Error bars in each plot of % tumor volume change vs. days of treatment were calculated as the standard error of the means. […]

[8] abbreviates: pH 1.2, read-out: Thermodynamic solubility at pH 1.2.
Setting [9] is: pH 6.8, read-out: Thermodynamic solubility at pH 6.8.

The IC50 is the midpoint of a concentration-inhibition curve. As a reminder, the bioavailability is the share of a dose that reaches the circulation, judged against a reference dose that is usually intravenous. Read a low bioavailability as poor availability. Usually Cmax stands for the highest concentration seen after dosing. A word on the thermodynamic solubility: it is solubility found after equilibrating the solid with the medium. With `C[C@@]12COCCN1c1nc(-c3cccc4[nH]ccc34)ncc1N([C@H]1CC[C@H](O)CC1)C2=O` [14c], in data set [1], the IC50 is 0.006 µM. The PI3Ka sel. in data set [2] is listed as 240 ×. For the same compound, the “PI3Kα Sel” value in data set [2] (Table 2, unit not given) is on record as 240. Further, the “HLM Clint” value in data set [3] (apparent intrinsic clearance, scaled) stood at 6 mL min^–1 kg^–1. The compound also gave an IC50 in data set [4] of 21 µM. In data set [5], the frac. abs. is listed as 100%, the bioavailability turned out to be 94%, the Cl is 7.0 mL min^–1 kg^–1 and the Vd was determined as 1.3 L/kg. The compound further gave a Cmax in data set [5] of 1600 nM. In data set [6] (setting [8]), the solubility (thermodynamic) stood at 3960 µM (≈ 1720 µg/mL). Further, the thermodynamic solubility in data set [6] (setting [9]) was 6 µM (≈ 2.6 µg/mL). Further, in data set [7] (2 mpk po QD 14 days), the Tumor growth entry was “fully inhibited tumor growth”. Further, the Tumor volume reduction result in data set [7] (6 mpk po QD 14 days) is listed as “more than 50%”.
In the case of `CC(F)(F)CN1C(=O)[C@]2(C)COCCN2c2nc(-c3ccc(NC(=O)NC4CC4)cc3)ncc21` [compound 1], the IC50 in data set [1] was determined as 0.049 µM. Further, the “PI3Kα Sel” value in data set [2] was found to be 54 x. Further, the CLint scaled in data set [3] (human, liver microsomes, Figure 1 profile, read-out: HLM Clint) stood at 10 mL/min/kg. The IC50 in data set [4] was 7 µM. For the same compound, in data set [5], the frac. abs. is reported as 22%, the bioavailability came to 20%, the Cl is listed as 6.9 mL min^–1 kg^–1 and the Vd turned out to be 0.95 L/kg. This compound registered a Cmax in data set [5] of 320 nM. In data set [6] (setting [8]), the thermodynamic solubility stood at 340 µM (≈ 161 µg/mL). In addition, the solubility (thermodynamic) in data set [6] (setting [9]) was 0.6 µM (≈ 0.283 µg/mL). For the same compound, in data set [7] (30 mpk po QD 14 days), the Tumor growth result is reported as “fully inhibited tumor growth”.

These data come from PMC10641921, “Optimization of mTOR Inhibitors Using Property-Based Drug Design and Free–Wilson Analysis for Improved In Vivo Efficacy” (ACS Medicinal Chemistry Letters, 2023).
